Measurements published in patent publication US5976523A, “Method for healing compromised tissues using pyrimidine derivatives” (Mitsui Pharmaceuticals, Inc., priority 1995, dated 1999).
Where a name gives a salt, the structure may show the parent alone. Values belong to the compound of their own block, whether it stands above or below them.

Legend:
Ito (star) cells = test: DNA and collagen synthesis and αSM expression in Ito (star) cells; format: cell-based, SD rat
From the text: (§1) As fulminant hepatitis may develop hepatocellular regeneration failure despite a high HGF concentration in blood, use of a medicament capable of enhancing effects of a growth factor is desired. Activities of a compound according to the present invention as a hepatic medicine were investigated using primary cultured cells and Ito (star) cells of rat.
On the other hand, an SD male rat of about 300 g in body weight was sacrificed by perfusion of physiological saline containing collagenase and proteinase. Ito (star) cells were collected and then spread at 1.25×10^5 cells/cm^2 over plates, followed by the initiation of cultivation. The cultivation was conducted for 6 days. In a manner similar to the procedures described above, some of the plates were added with the invention compound and [^3 H]-leucine 24 hours before harvest, while the remaining plates were added with the invention compound 24 hours before harvest and were then added with [^3 H]-tymidine two hours before the harvest. The synthesized amount of DNA and that of proteins were measured. Further, after Ito cells were cultured for 6 days, the invention compound and b-FGF were added. Subsequent to cultivation for 30 minutes, […] of ascorbic acid and 0.5 mM of β-aminopropionitrile fumarate were added, followed by cultivation for 1 hour. [2,3-^3 H]-proline (10 μCi/ml) was added, followed by further cultivation for 24 hours. The culture was separated into the culture medium and the resultant cells, and a TCA precipitate was formed. After the precipitate was dissolved with 0.1N NaOH, the cells were incubated in the presence of bacterial collagenase. The reaction was terminated with TCA-tannic acid, followed by the formation of a pellet. A supernatant fraction was added to the liquid scintillator and the amount of proteins synthesized by the cells was measured by the liquid scintillation counter.

[1] = tested on: primary cultured gastric mucosal cells; test: Wound repair model with primary cultured gastric mucosal cells; format: cell-based, rabbit
Procedure: Primary cultured gastric mucosal cells were prepared by mechanically peeling and mincing the gastric mucosa of a rabbit having a body weight of 2 kg and then digesting the minced gastric mucosa with 0.07% collagenase. The primary cultured gastric mucosal cells were cultured at a cell concentration of 3.3×10^5 cells/ml in F-12 culture medium containing 10% fetal calf serum added therein. For this cultivation, a culture dish (60 mm in diameter) coated with collagen type I was used. […] Using an anti-BrdU antibody, the cells in the S phase were stained to identify proliferated cells.
Their effects on the process of restoration were measured under the above-described parameters. […] In each of the control group and the medicament-added groups, the area of the wounded region was measured at the 0th hour, 12th hour, 24th hour, 36th hour and 48th hour. The measurement results will be given in this order.
The control group and the groups added with the medicament at the respective concentrations were each subjected to the experiment with n=5. The results will each be presented as a (mean±S. D.) mm2. A test of significance was conducted relative to the control group. * stands for p<0.05, ** for p<0.01, *** for p<0.001. A further test of significance was conducted relative to a group added with 10 ng/ml of EGF. + stands for p<0.05, and ++ for <0.01.

hepatocytes = test: DNA and protein synthesis in primary cultured hepatocytes; format: cell-based, SD rat
From the text: as §1
An SD male rat of about 200 g in body weight was sacrificed by perfusion of collagenase-containing physiological saline. Hepatocytes were immediately collected and then spread at 5.0×10^4 cells/cm^2 over plates, followed by the initiation of cultivation. Two hours later, the culture medium was replaced by a fresh supply of the culture medium. Twenty-four hours later, EGF and [^3 H]-leucine (1 μCi/ml) were added to half the number of the plates with or without addition of 2-piperidino-7-methyl-6-oxo-5,6-dihydro(7H)pyrro[2,3-d]pyrimidine maleate, respectively. At the same time, EGF was added to the remaining plates with or without addition of the invention compound, respectively. Forty-six hours later, the latter plates were both added further with [^3 H]-tymidine (2 μCi/ml). Forty-eight hours later, each culture was filtered under suction to harvest the cells so cultivated. Trichloroacetic acid (TCA) was added to the thus-harvested cells to obtain a TCA precipitate. The TCA precipitate was formed into a pellet. The pellets which had been obtained from the [^3 H]-tymidine-added cultures, respectively, were each dissolved with 0.1N NaOH. The resulting solution was added to a liquid scintillator and the amount of DNA synthesized by the cells was measured by a liquid scintillation counter. Likewise, the pellets which had been obtained from the [^3 H]-leucine-added cultures, respectively, were each boiled at 70° C. to extract soluble matter. The extract so obtained was also added with TCA to obtain a TCA precipitate. The TCA precipitate was dissolved with 0.1N NaOH. The resulting solution was added to the liquid scintillator and the amount of proteins synthesized by the cells was measured by the liquid scintillation counter.

[2] = tested on: CAMs (chorioallantoic membranes); test: Angiogenesis on chorioallantoic membranes (CAM); format: in vivo, chick; conditions: day 3
Procedure: For a bFGF, various assay systems assessing the angiogenesis activity of the bFGF as an index are usable. The shells of chick embryos are fenestrated centrally corresponding to the air spaces thereof, whereby the chorioallantoic membranes (CAMS) are exposed. Solutions of the bFGF and a test medicament at various concentrations were applied onto the respective CAMs. Incubation was continued. Several days later, the degrees of angiogenesis were investigated under a microscope. This method is preferably employed. […] The test medicament is therefore found to be useful for the reduction of a time required for the construction of a skin-equivalent tissue. […] Also with respect to a VEGF, its angiogenesis activity can be assayed in a similar system.
The shells of eggs on the 10th day after fertilization were fenestrated centrally corresponding to air spaces thereof, whereby CAMs (chorioallantoic membranes) were exposed. A nylon film in the form of a square of 3 mm in side was placed over the CAM, and onto the nylon film, a solution of bFGF as a growth and/or differentiation factor or the pyrimidine compound according to the present invention was dropped in an amount of 8 ul. Incubation was continued at 38° C. On the 72nd hour, the eggs were moved to a cool place controlled at 4° C. After the eggs were left over for 2 to 3 hours there, the degree of angiogenesis in each egg was investigated under a microscope. The angiogenesis was determined based on the number of radial blood vessels equal to or larger than 0.1 mm in diameter. Onto the nylon disk placed over the CAMS, 1, 10, and 100 ng/ml solutions of recombinant human bFGF (product of Genzyme Corporation) in physiological saline and 0.01 to 1 mM solutions of the individual pyrimidine compound in physiological saline were applied singly or in combination.

bone defect (tibia) = test: Rat bone defect model, formation of hyaline cartilage matrix; format: in vivo; conditions: bFGF (0.5 μg) pellet, 7th day
From the text: Action of 2-piperazino-6-methyl-5-oxo-5,6-dihydro(7H)pyrro[3,4-d]pyrimidinemaleate on in vivo chondrogenesis was studied in detail by preparing a rat bone defect model which permits observation of bFGF-derived formation of a hyaline cartilage matrix. Embedment of a bFGF-containing pellet in a bone defect of the model permits easy observation of formation of a hyaline cartilage matrix under the periosteum around the bone defect. Rats were divided into three groups. The rats in one of the groups were each embedded in a formed bone defect (diameter: 2.6 mm) thereof with a hydroxyethyl methacrylate pellet (10 mg) which contained bFGF (0.5 μg). The rats in another one of the groups were each embedded likewise with a hydroxyethyl methacrylate pellet (10 mg) which contained bFGF (0.5 μg) and the invention compound (0.5 mg). The rats in the remaining group, that is, a control group were each embedded similarly with a pellet which contained physiological saline. After the rats in all the three groups were sacrificed seven days later, action of bFGF or the invention compound on the process of chondrogenesis on enchondral ossification around the bone defect was investigated. On the 7th day after the formation of the bone defect, the tibia of each rat was histologically examined around the bone defect.

[3] = 1 μM to 100 μM, irrespective of b-FGF

synthesis of DNA by the hepatocytes (hepatocytes; 10 μM compound, with EGF): significantly increased
Compound: CN1C(=O)Cc2cnc(N3CCCCC3)nc21 [Compound A, 2-piperidino-7-methyl-6-oxo-5,6-dihydro(7H)pyrro[2,3-d]pyrimidine maleate]
synthesis of DNA by the star cells (Ito (star) cells; [3]): lowered depending on the amount of the invention compound
synthesis of collagen by the star cells (Ito (star) cells; [3]): lowered depending on the amount of the invention compound
expression of αSM (Ito (star) cells; compound with b-FGF, quantity-dependent): allowed to recover by the addition of the invention compound in a quantity-dependent manner
expression of α2-smooth muscle actin (αSM) (Ito (star) cells; compound, absence of b-FGF): lowered by the addition of the invention compound
area of the wounded region (mean±S.D.) ([1]; EGF + 0.01 mM compound, 0th hour): 2.06±0.05 mm2
area of the wounded region (mean±S.D.) ([1]; EGF + 0.01 mM compound, 12th hour): 0.72±0.36 mm2
area of the wounded region (mean±S.D.) ([1]; EGF + 0.01 mM compound, 24th hour): 0.39±0.04 mm2
area of the wounded region (mean±S.D.) ([1]; EGF + 0.01 mM compound, 36th hour): 0.05±0.04 mm2
area of the wounded region (mean±S.D.) ([1]; EGF + 0.01 mM compound, 48th hour): 0 mm2
area of the wounded region (mean±S.D.) ([1]; EGF + 0.1 mM compound, 0th hour): 2.08±0.08 mm2
area of the wounded region (mean±S.D.) ([1]; EGF + 0.1 mM compound, 12th hour): 0.80±0.04 mm2
area of the wounded region (mean±S.D.) ([1]; EGF + 0.1 mM compound, 24th hour): 0.24±0.05 mm2
area of the wounded region (mean±S.D.) ([1]; EGF + 0.1 mM compound, 36th hour): 0 mm2
area of the wounded region (mean±S.D.) ([1]; EGF + 0.1 mM compound, 48th hour): 0 mm2
effect on EGF-induced acceleration of cell restoration ([1]; compound 0.01-0.1 mM with EGF): further promoted the EGF-induced acceleration of cell restoration in a concentration-dependent fashion
repairing effects ([1]; compound alone 0.01-0.1 mM, absence of EGF): did not show repairing effects in the absence of EGF
concentration of albumin in the supernatant (hepatocytes; 10 μM compound, with EGF): no change was observed
expression of mRNA (albumin) (hepatocytes; 10 μM compound, with EGF): no change was observed
synthesis of DNA by the hepatocytes (hepatocytes; without EGF): not recognized to promote the synthesis of DNA

Compound: bFGF: basic fibroblast growth factor; recombinant human bFGF (product of Genzyme Corporation) in Example 26
expression of αSM (Ito (star) cells; b-FGF alone): lowered by the presence of b-FGF
number of new blood vessels (M±SE) ([2]; bFGF alone 1 ng/ml): 4.1±0.4
number of new blood vessels (M±SE) ([2]; bFGF alone 10 ng/ml): 4.3±0.7
number of new blood vessels (M±SE) ([2]; bFGF alone 100 ng/ml): 6.1±1.1
formation of a hyaline cartilage matrix (bone defect (tibia)): in a small amount
